Measured values from article PMC8226574, “Action of Carvacrol on Parascaris sp. and Antagonistic Effect on Nicotinic Acetylcholine Receptors” (Pharmaceuticals, 2021).
Entries after “also recorded” stand apart in the source; their conditions may differ. Read-outs that look alike come from different tables or passages of the source.

Tests used:
[1] = system: Parascaris sp. muscle flap; test: Parascaris sp. body muscle flap isometric contraction assay
Experimental: For the contraction assay, adult female Parascaris sp. worms were collected weekly from the slaughterhouse at Vrčin, Belgrade, Serbia. Worms were maintained in Locke’s solution, composition (mM): NaCl 155, KCl 5, CaCl2 2, NaHCO3 1.5 and glucose 5, at a temperature of 32 °C. The Locke’s solution was changed twice daily, and each batch of worms was used within 2 days of collection. Parascaris muscle flaps for the contractions were prepared by dissecting the anterior part of the worm, 3–4 cm caudal to the head (Figure 1b). Each flap (always the same length of 1 cm) was monitored isometrically by attaching a force transducer in an experimental bath maintained at 37 °C, containing 20 mL Ascaris Perienteric Fluid Ringer/APF Ringer (mM: NaCl, 23; Na-acetate, 110; KCl, 24; CaCl2, 6; MgCl2, 5; glucose, 11; HEPES, 5; pH 7.6) and bubbled with room air. After dissection, the preparations were allowed to equilibrate for 15 min under an initial tension of 1.5 g. […] Responses for each concentration were expressed in grams of tension (g), produced by each individual flap preparation. The effect of carvacrol (300 μM) on the acetylcholine dose–response plots was determined. Contractions were monitored on a PC using a BioSmart interface and eLAB software (ElUnit, Belgrade, Serbia). The system allows real-time recording, display and analysis of experimental data. Sigmoid dose–response curves for each individual flap preparation at each concentration of the antagonist were described by the Hill equation.
(§1) The results of the contraction assay are expressed as means ± S.E. in grams (g) of tension. […] GraphPad Prism® Software (San Diego, CA, USA) was used to estimate the constants EC50 and nH by non-linear regression for each preparation. We determined the mean contraction responses to each concentration of acetylcholine. Whole cell current electrophysiology responses were analyzed using the pCLAMP 10.4 package (Molecular Devices). […] One-way analysis of variance (ANOVA) was applied for the comparison of the differences between the EC50 value and the maximal effect (Rmax). Differences were considered significant when the p value was < 0.05. The statistical analysis was conducted using GraphPad Prism® software (San Diego, CA, USA), while all values are expressed as mean ± standard error (S.E.).

[2] = molecular target: Parascaris sp. ACR-26/27 M-AChR (Parascaris equorum, UniProt A0A0U2ES47+A0A0U2ES58); test: Two-electrode voltage-clamp on Parascaris sp. ACR-26/27 M-AChR expressed in Xenopus laevis oocytes; type: cell-based
Chain of Parascaris sp. ACR-26/27 M-AChR (A0A0U2ES58 entry or part of it): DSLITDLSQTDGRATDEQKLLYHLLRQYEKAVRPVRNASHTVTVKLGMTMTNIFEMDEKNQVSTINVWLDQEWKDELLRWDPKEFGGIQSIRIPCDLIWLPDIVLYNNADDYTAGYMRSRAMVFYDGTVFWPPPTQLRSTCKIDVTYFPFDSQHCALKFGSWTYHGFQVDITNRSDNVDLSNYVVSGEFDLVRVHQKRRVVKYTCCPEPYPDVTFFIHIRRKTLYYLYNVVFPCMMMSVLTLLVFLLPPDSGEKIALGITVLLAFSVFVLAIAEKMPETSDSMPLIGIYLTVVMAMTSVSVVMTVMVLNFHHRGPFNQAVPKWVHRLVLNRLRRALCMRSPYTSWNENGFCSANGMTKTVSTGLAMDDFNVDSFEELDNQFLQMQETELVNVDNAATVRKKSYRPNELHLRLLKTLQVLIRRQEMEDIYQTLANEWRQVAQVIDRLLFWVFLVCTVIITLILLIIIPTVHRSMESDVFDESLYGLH
Chain of Parascaris sp. ACR-26/27 M-AChR (A0A0U2ES47 entry or part of it): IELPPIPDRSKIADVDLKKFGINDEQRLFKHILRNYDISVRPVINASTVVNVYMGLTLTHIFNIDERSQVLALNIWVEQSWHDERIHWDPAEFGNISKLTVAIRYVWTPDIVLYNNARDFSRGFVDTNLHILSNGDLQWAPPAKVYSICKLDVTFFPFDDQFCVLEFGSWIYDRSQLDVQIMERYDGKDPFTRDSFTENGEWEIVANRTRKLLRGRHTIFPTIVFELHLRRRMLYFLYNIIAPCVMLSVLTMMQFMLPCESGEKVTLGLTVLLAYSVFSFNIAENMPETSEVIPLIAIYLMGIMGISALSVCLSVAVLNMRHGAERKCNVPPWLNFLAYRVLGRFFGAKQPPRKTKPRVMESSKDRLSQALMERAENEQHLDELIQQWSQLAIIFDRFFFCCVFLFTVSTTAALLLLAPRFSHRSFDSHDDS
Experimental: (§2) Parascaris sp. ACR-26/27 M-AChR as well as Parascaris sp. and A. suum ACR-16 N-AChRs were expressed in Xenopus laevis oocytes as previously described. Briefly, Xenopus laevis defolliculated oocytes were obtained from Ecocyte Bioscience (Germany). Oocytes were micro-injected with 36 nL of cRNA mixes containing 50 ng/µL of each cRNA encoding subunits of interest and three H. contortus ancillary factors (Hco-RIC-3.1, Hco-UNC-50 and Hco-UNC-74). After 3–4 days of incubation, the oocytes were assayed under voltage clamp at −60 mV, and electrophysiological recordings were performed as described previously. The carvacrol concentration-dependent inhibition of acetylcholine current response was assessed for Parascaris- and Asu-ACR-16 channels with the protocol described by Zheng et al..
as §1

[3] = molecular target: Parascaris sp. ACR-16 N-AChR (Parascaris equorum, UniProt A0A3S9VMQ8); test: Two-electrode voltage-clamp on Parascaris sp. ACR-16 N-AChR expressed in Xenopus oocytes; type: cell-based; conditions: for reduction of ACh maximal response amplitude: p < 0.05
Chain of Parascaris sp. ACR-16 N-AChR (A0A3S9VMQ8 entry or part of it): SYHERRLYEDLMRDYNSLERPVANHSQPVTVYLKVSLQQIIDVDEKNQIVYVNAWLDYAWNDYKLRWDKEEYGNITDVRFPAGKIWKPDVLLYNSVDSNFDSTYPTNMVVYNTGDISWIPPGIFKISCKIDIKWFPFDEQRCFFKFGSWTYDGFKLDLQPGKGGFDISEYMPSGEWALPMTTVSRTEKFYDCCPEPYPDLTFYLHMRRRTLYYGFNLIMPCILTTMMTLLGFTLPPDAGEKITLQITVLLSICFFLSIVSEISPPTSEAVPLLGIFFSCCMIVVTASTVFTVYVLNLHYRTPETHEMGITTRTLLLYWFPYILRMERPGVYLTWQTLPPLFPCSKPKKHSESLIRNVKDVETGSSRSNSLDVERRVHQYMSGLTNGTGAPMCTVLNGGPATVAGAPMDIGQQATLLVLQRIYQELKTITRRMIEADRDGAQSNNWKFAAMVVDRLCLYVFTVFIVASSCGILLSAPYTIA
Experimental: as §2, §1

[4] = system: A. suum innervated muscle strips; conditions: 300 µM of carvacrol; cited from earlier work
[5] = molecular target: T1, A. suum ACR-16 N-AChR (Ascaris suum, UniProt F1KYJ9); test: cell-based
T1 construct: expressed in transfected cells; host or cells: Xenopus laevis oocytes (cRNA micro-injection)
T1 sequence (F1KYJ9 1-504): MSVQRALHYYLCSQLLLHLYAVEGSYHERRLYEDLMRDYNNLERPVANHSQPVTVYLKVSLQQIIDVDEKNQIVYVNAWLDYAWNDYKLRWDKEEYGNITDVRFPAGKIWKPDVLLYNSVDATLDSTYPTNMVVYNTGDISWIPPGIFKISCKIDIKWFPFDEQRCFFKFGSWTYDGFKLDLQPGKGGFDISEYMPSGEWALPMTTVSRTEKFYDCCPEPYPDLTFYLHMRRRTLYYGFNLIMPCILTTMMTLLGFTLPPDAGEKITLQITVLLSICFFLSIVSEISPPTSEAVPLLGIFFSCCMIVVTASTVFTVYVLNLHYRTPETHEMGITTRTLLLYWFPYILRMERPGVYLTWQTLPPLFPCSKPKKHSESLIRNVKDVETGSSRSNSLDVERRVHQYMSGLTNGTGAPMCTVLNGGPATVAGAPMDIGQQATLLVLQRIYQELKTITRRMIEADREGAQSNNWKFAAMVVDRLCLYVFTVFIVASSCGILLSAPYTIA
Experimental: as §2, §1

SMILES: CC(=O)OCC[N+](C)(C)C [ACh, Acetylcholine chloride]
- maximal effect (Rmax), contraction ([1]; obtained with 100 µM ACh): 1.19 ± 0.051 g
- EC50 ([1]; read-out: EC50 of ACh, muscle flap contraction, control, no carvacrol, n = 5): 6.08 µM
- EC50 ([1]; read-out: log EC50 of ACh, muscle flap contraction (converted)): 6.03 µM
- EC50 ([2]; ACh EC50, absence of carvacrol, normalized to 100 µM ACh, n = 6): 25 µM
- EC50 ([2]; ACh EC50, continued perfusion of 100 µM carvacrol, n = 5): 12.2 µM
- EC50 ([2]; ACh EC50, continued perfusion of 300 µM carvacrol, n = 6): 6.6 µM
- EC50 ([2]; ACh log EC50, absence of carvacrol, log of EC50 in µM, n = 6): 25 µM
- EC50 ([2]; ACh log EC50, continued perfusion of 100 µM carvacrol, n = 5): 12.2 µM
- EC50 ([2]; ACh log EC50, continued perfusion of 300 µM carvacrol, n = 6): 6.56 µM
- Hill coefficient of ACh concentration-response ([2]; absence of carvacrol): 1.4 ± 0.1
- Hill coefficient of ACh concentration-response ([2]; presence of 100 µM carvacrol): 1.7 ± 0.4
- Hill coefficient of ACh concentration-response ([2]; presence of 300 µM carvacrol): 1.5 ± 0.3
- Hill coefficient of ACh concentration-response ([3]; 100 µM carvacrol): 2.0 ± 0.3
- Hill coefficient of ACh concentration-response ([3]; 300 µM carvacrol): 2.1 ± 0.4
- EC50 ([3]; ACh EC50, presence of 100 µM carvacrol, n = 6): 5.9 µM
- EC50 ([3]; ACh EC50, presence of 300 µM carvacrol, n = 10): 8.2 µM
- EC50 ([3]; ACh EC50, without carvacrol, n = 6): 6.5 µM
- EC50 ([3]; ACh log EC50, presence of 100 µM carvacrol, n = 6): 5.92 µM
- EC50 ([3]; ACh log EC50, presence of 300 µM carvacrol, n = 10): 8.18 µM
- Hill coefficient of ACh concentration-response ([3]; without carvacrol): 2.0 ± 0.2
- ACh log EC50 ([3]; without carvacrol, log of EC50 in µM, n = 6): 0.811 ± 0.028

SMILES: Cc1ccc(C(C)C)cc1O [carvacrol]
- inhibitory effect after removal of carvacrol from experimental baths (washing) ([1]; 300 µM carvacrol): remained even after removal
- effect on contractions induced by ACh ([1]; 300 µM carvacrol, ACh 1 to 100 µM): completely abolished; also recorded: fully and irreversibly abolished; also recorded: full inhibition
- mode of action [2]: non-competitive antagonist
- agonist action ([2]; carvacrol perfused alone): no agonist action
- effect on efficacy of ACh activation (Imax) ([2]; perfusion of 100 and 300 µM carvacrol, p < 0.0001): significantly reduced
- IC50 ([2]; read-out: IC50, inhibition of ACh-elicited current): 169.3 ± 1 µM
- IC50 [3]: 177.8 ± 1.1 µM
- mode of action [3]: non-competitive antagonist
- agonist effect ([3]; 300 µM carvacrol): no agonist effect
- reduction of ACh maximal response amplitude ([3]; presence of 100 µM carvacrol): 2 fold
- reduction of ACh maximal response amplitude ([3]; presence of 300 µM carvacrol): 3 fold
- inhibition of the ACh contractile effect [4]: ≤ 49%
- IC50 [5]: 36.4 ± 1.3 µM
- mode of action [5]: non-competitive antagonist
- higher affinity for the A. suum N-AChR over the Parascaris sp. N-AChR ([5]; from concentration-inhibition data): approximately 5 fold
